Source: publication PMC7410094 (ACS chemical biology, 2020)

Tests used:
β2AR = β2AR (Homo sapiens, UniProt P07550); assay: radioligand binding assay; conditions: labelled compound; antagonist; DDM or MTG micelles at CMC+0.2 wt%
MelBSt = MelBSt (Salmonella enterica, UniProt P30878); assay: Trp to dansyl FRET; type: binding; conditions: DDM or MTG-E13 micelles; active site
MelBEC = MelBEC (Escherichia coli, UniProt P02921); assay: Trp to dansyl FRET; type: binding; conditions: MTG-E13 micelles (response lost in DDM); active site
MelBEC, sequence (P02921 2-473): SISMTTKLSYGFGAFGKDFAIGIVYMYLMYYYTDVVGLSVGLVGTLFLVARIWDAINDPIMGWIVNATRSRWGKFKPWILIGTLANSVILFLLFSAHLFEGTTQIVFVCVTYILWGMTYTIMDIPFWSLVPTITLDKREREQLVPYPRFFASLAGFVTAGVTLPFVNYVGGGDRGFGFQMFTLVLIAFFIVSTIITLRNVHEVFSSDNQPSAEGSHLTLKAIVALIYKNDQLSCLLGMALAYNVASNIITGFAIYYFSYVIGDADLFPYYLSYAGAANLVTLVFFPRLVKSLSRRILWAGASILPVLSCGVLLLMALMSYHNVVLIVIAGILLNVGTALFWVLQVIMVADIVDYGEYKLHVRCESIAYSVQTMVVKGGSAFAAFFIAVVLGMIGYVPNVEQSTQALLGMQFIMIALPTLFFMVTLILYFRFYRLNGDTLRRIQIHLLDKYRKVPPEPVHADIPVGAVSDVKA

MelBSt, sequence (P30878 whole entry): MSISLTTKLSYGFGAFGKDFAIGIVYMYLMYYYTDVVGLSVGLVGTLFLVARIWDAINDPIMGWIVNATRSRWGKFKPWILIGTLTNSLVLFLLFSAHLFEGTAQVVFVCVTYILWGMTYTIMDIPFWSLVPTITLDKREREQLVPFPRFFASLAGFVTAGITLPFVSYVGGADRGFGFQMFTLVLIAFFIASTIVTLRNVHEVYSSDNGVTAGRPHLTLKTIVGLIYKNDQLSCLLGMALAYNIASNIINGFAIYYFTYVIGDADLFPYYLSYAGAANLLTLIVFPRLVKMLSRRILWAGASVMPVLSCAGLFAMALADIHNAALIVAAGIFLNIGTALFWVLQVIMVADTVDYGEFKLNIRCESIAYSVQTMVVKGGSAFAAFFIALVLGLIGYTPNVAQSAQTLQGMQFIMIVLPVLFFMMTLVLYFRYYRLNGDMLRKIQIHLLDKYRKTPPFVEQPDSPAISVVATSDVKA
β2AR, sequence (P07550 whole entry): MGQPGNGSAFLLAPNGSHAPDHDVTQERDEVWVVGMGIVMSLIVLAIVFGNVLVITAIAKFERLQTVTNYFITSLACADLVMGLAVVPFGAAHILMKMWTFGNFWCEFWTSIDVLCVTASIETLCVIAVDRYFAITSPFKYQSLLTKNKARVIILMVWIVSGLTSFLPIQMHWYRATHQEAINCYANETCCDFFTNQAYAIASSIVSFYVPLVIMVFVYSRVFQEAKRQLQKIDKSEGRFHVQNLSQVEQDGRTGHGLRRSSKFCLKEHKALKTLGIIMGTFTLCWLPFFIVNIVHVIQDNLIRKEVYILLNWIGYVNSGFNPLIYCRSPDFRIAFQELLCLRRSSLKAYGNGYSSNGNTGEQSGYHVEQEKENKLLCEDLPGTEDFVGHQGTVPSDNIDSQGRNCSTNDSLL

SMILES | radioligand binding assay (β2AR) | Trp to dansyl FRET (MelBSt) | Trp to dansyl FRET (MelBEC)
CCCc1ccccc1OCC(O)CNC(C)C (stereo not drawn) [[^3H]-dihydroalprenolol] | the MTGs led to [^3H]-DHA-binding capability of the receptor comparable to DDM | – | –
CN(C)c1cccc2c(S(=O)(=O)NCCS[C@@H]3O[C@H](CO)[C@H](O)[C@H](O)[C@H]3O)cccc12 [D^2G, 2’-(N-dansyl)aminoalkyl-1-thio-β-D-galactopyranoside] | – | DDM-solubilized MelBSt showed initial increase and subsequent decrease in the fluorescence signal | MTG-E13, was effective at preserving the functionality of this less stable MelB homologue
